Patent publication US10196373B2, “Substituted 2-hydroxy-4-(2-(phenylsulfonamido)acetamido)benzoic acid analogs as inhibitors of STAT protein” (University of Central Florida Research Foundation, Inc., priority 2010, dated 2019)
Like-named read-outs stand apart in the source and are kept apart here.

Columns and labels:
DU-145 cells = assay: Cell viability, MTS assay; assay type: cell-based; conditions: Homo sapiens, DU-145, 72 hours
Method: (§1) To further test activity of these molecules, a whole-cell study involving cancer lines with known abherrant STAT3 expression was conducted. These human cell lines, including prostate cancer (DU145), breast cancer (MDA468), and promyelocytic leukemia (HL-60) were treated with the peptidomimetics and incubated for 72 hours. Disruption of cell viability was measured by MTS assay and IC50 values for the potential inhibitors was determined. OriginPro 8 (Northampton, Mass.) was used to evaluate EC50 using the dose response curve defined as follows:
(§2) [formula] where y is the fraction of death, x is the log of drug concentration. A2 is the top asymptote, A1 is the bottom asymptote, logx0 is the center of the curve, and p is the hill slope.

HL60 cells = assay: Cell viability, MTS assay; assay type: cell-based; conditions: Homo sapiens, HL-60, HL60, 72 hours
Method: as §1, §2

MDA-468 cells = assay: Cell viability, MTS assay; assay type: cell-based; conditions: Homo sapiens, MDA-468, 72 hours
Method: as §1, §2

OCI-AMI.2 cells = assay: Cell viability, MTS assay; assay type: cell-based
STAT3 [1] = molecular target: STAT3 (Mus musculus, UniProt P42227); assay: Stat3 DNA-binding activity, electrophoretic mobility shift assay (EMSA) with nuclear extracts; assay type: biochemical
Method: Nuclear extract preparations and electrophoretic mobility shift assay (EMSA) were carried out as previously described (Yang J, et al. (2005) Cancer Res. 65:939-947). […] For direct effect of a test compound on Stat3 DNA-binding activity, nuclear extracts were pre-incubated with the agent for 30 min at room temperature prior to incubation with the radiolabeled probe for 30 min at 30° C. before subjecting to EMSA analysis. […] Cytosolic extract preparation from mammalian cells and luciferase assay previously described (Zhang X, et al. (2010) Biochem Pharmacol 79:1398-1409; Turkson J, et al. (1999) Mol. Cell. Biol. 19:7519-7528; Turkson J, et al. (1998) Mol. Cell. Biol. 18:2545-2552).)

STAT3 [2] = molecular target: STAT3 (Homo sapiens (Human), UniProt P40763); assay: Fluorescence polarization assay, inhibition of binding to STAT3; conditions: inhibition of binding to STAT3 in a fluorescence polarization assay; read-out: Ki (FP)
Method: The fluorescent polarization experiments were performed on an Infinite M1000 (Tecan, Crailsheim, Germany). All assays were performed in the same buffer conditions of 50 mM NaCl, 10 mM Hepes, pH 7.5, 1 mM EDTA, and 2 mM dithiothreitol. Fluorescent-labelled peptides were kept at a final concentration of 10nM in buffered solution. […] of labelled peptides were added to […] of a 300 nM STAT3 protein solution (provided by SignalChem in 50 mM Tris-HCl, pH 7.5, 150 mM NaCl, 0.25 mM DTT, 0.1 mM PMSF, 25% glycerol and stored at −80° C.). Inhibitory molecules were dissolved in pure DMSO and diluted using buffer solution to produce four final concentrations ([…]). 7.5 μL of the inhibitory molecule solution was mixed with the STAT3 protein and labelled peptide solution in black 384-flat well microplates (Coming), and incubated for 15-30 minutes. The M1000 performed a shaking cycle and then read the plates. IC50′s were derived from the output using the curve-fitting software OriginPro 8 (Northampton, MA). The FP data was modelled by the following equation:
[formula] where X was the concentration of inhibitor and ρwas the corresponding fluorescence at that concentration. The free parameter was half the maximal inhibitory concentration (IC50) and the limiting values was the maximal measured fluorescence polarization (ρ1) and the minimal fluorescence polarization (ρ2). Origin curve fitting software utilizes the Levenberg-Marquardt algorithm and reduced chi-square criterion for convergence. The inhibitor dissociation constant, Ki, was calculated from the derived IC50 values, as per the following formula: […]
Further details of the fluorescence polarization assay are as described previously (Zhang X, et al. (2010) A novel small-molecule disrupts Stat3 SH2domainphosphotyrosine interactions and Stat3-dependent tumor processes. Biochem Pharmacol 79: 1398-1409).

[3] = inhibition of STAT3 activity in an EMSA

Sequence of STAT3 (Homo sapiens (Human), UniProt P40763) (P40763 whole entry): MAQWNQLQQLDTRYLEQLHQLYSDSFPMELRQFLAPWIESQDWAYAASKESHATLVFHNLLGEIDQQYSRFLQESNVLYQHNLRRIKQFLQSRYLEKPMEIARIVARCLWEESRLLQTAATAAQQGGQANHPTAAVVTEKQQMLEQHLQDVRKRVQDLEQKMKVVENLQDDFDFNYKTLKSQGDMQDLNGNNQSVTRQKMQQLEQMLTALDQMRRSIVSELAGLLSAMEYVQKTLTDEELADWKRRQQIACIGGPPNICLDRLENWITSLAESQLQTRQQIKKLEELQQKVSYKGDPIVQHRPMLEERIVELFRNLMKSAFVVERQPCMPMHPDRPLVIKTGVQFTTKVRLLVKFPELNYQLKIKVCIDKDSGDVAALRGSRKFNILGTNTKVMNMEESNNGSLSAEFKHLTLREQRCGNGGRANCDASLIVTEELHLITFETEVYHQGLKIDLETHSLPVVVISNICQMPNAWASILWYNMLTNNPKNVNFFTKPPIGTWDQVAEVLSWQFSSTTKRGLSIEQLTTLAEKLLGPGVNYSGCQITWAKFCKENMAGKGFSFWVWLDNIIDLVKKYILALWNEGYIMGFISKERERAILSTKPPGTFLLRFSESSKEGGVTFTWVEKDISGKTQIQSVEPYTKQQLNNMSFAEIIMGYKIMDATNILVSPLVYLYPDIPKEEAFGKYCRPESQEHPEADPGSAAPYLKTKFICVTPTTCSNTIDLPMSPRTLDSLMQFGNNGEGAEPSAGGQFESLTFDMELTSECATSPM
Sequence of STAT3 (Mus musculus, UniProt P42227) (P42227 2-770 limits assumed): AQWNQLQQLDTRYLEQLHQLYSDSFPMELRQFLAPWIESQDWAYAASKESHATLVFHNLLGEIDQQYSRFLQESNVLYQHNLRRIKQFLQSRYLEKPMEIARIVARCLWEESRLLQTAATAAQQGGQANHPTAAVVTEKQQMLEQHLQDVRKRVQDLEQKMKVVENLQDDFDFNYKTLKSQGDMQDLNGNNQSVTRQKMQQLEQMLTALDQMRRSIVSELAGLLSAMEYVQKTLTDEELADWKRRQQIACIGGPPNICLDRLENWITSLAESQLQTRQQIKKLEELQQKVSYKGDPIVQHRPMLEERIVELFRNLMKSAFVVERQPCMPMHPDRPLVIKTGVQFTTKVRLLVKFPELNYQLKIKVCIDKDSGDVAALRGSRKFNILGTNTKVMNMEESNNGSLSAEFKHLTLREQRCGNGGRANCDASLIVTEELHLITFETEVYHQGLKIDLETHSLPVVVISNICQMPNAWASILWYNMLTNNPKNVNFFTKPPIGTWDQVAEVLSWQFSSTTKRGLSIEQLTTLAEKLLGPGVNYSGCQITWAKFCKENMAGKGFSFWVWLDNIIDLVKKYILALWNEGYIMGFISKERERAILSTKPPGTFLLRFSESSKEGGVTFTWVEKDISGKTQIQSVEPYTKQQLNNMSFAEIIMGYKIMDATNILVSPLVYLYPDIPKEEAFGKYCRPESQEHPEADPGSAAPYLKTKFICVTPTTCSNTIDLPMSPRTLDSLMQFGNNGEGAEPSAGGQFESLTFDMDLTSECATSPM

Row | SMILES | IC50 (DU-145 cells) | IC50 (HL60 cells) | IC50 (MDA-468 cells) | IC50 (OCI-AMI.2 cells) | IC50 (STAT3 [1]; [3]) | Ki (STAT3 [2]) | IC50 (STAT3 [1])
1 | CN(CC(=O)N(Cc1ccc(C2CCCCC2)cc1)c1ccc(C(=O)O)c(O)c1)S(=O)(=O)c1ccc(F)cc1 [Compound 45L, 4-(N-(4-cyclohexylbenzyl)-2-(4-fluoro-N-methylphenylsulfonamido)acetamido)-2-hydroxy benzoic acid] | 72.7 ± 18.4 µM | 75.1 ± 25.1 µM | 41.3 ± 5.7 µM | 84.4 ± 22.1 µM |  |  | 
2 | CN(CC(=O)N(Cc1ccc(C2CCCCC2)cc1)c1ccc(C(=O)O)c(O)c1)S(=O)(=O)c1ccc(C#N)cc1 [Compound 45I, 4-(2-(4-cyano-N-methylphenylsulfonamido)-N-(4-cyclohexylbenzyl)acetamido)-2-hydroxy-benzoic acid] | 69.6 ± 3.4 µM | 59.1 ± 11.5 µM | 27 ± 2.7 µM | 53.5 ± 22.8 µM |  |  | 
3 | Cc1ccc(S(=O)(=O)N(C)CC(=O)N(Cc2ccc(C3CCN(S(=O)(=O)c4ccc(C#N)cc4)CC3)cc2)c2ccc(C(=O)O)c(O)c2)cc1 [Compound 27KG, 4-(N-(4-(1-((4-cyanophenyl)sulfonyl)piperidin-4-yl)benzyl)-2-(N,4-dimethylphenyl-sulfonamido)acetamido)-2-hydroxybenzoic acid] | > 100 µM | 83.1 ± 13.5 µM | 94.9 ± 8.8 µM | > 100 µM | 50 ± 15 µM | 21.5 ± 2.2 µM | 
4 | CN(CC(=O)N(Cc1ccc(C2CCCCC2)cc1)c1ccc(C(=O)O)c(O)c1)S(=O)(=O)c1cccc2ccccc12 [Compound 45E, 4-(N-(4-cyclohexylbenzyl)-2-(N-methylnaphthalene-1-sulfonamido)acetamido)-2-hydroxy-benzoic acid] | 74.5 ± 30.2 µM | 76.9 ± 50.5 µM | 46.5 ± 12.4 µM | 33.3 ± 19.8 µM | 28.8 ± 2 µM | 26.5 ± 0.4 µM | 
5 | CN(CC(=O)N(Cc1ccc(C2CCCCC2)cc1)c1ccc(C(=O)O)c(O)c1)S(=O)(=O)c1ccc2ccccc2c1 [Compound 45D, 4-(N-(4-cyclohexylbenzyl)-2-(N-methylnaphthalene-2-sulfonamido)acetamido)-2-hydroxy-benzoic acid] | 81 ± 39.3 µM | 99.8 ± 15.6 µM | 45.4 ± 23.2 µM | 93.5 ± 32.2 µM | 79.2 ± 11.2 µM |  | 
6 | CN(CC(=O)N(Cc1ccc(C2CCCCC2)cc1)c1ccc(C(=O)O)c(O)c1)S(=O)(=O)c1cccc2cccnc12 [Compound 45F, 4-(N-(4-cyclohexylbenzyl)-2-(N-methylquinoline-8-sulfonamido)acetamido)-2-hydroxy-benzoic acid] | > 100 µM | > 100 µM | > 100 µM | > 100 µM | 24.6 ± 3.4 µM | 41 ± 0.4 µM | 
7 | CN(CC(=O)N(Cc1ccc(C2CCCCC2)cc1)c1ccc(C(=O)O)c(O)c1)S(=O)(=O)c1cn(C)cn1 [Compound 45H, 4-(N-(4-cyclohexylbenzyl)-2-(N,1-dimethyl-1H-imidazole-4-sulfonamido)acetamido)-2-hydroxybenzoic acid] | > 100 µM | > 100 µM | > 100 µM | > 100 µM |  |  | 
8 | CN(CC(=O)N(Cc1ccc(C2CCCCC2)cc1)c1ccc(C(=O)O)c(O)c1)S(=O)(=O)c1ccc(Br)cc1 [Compound 45J] | 45.9 ± 8.6 µM | 47.4 ± 8.2 µM | 19.5 ± 2 µM | 44.9 ± 7.1 µM |  |  | 
9 | COc1ccc(S(=O)(=O)N(C)CC(=O)N(Cc2ccc(C3CCCCC3)cc2)c2ccc(C(=O)O)c(O)c2)cc1 [Compound 45M, 4-(N-(4-cyclohexylbenzyl)-2-(4-methoxy-N-methylphenylsulfonamido)acetamido)-2-hydroxybenzoic acid] | 92.7 ± 27.9 µM | > 100 µM | 71.4 ± 13.6 µM | > 100 µM |  |  | 
10 | CN(C)c1cccc2c(S(=O)(=O)N(C)CC(=O)N(Cc3ccc(C4CCCCC4)cc3)c3ccc(C(=O)O)c(O)c3)cccc12 [Compound 45G, 4-(N-(4-cyclohexylbenzyl)-2-(5-(dimethylamino)-N-methylnaphthalene-1-sulfonamido)acetamido)-2-hydroxybenzoic acid] | > 100 µM | 74.9 ± 20.2 µM | 45.5 ± 7.9 µM | > 100 µM |  |  | 
11 | Cc1ccc(S(=O)(=O)N(C)CC(=O)N(Cc2ccc(-c3ccc(C(=O)O)cc3)cc2)c2ccc(C(=O)O)c(O)c2)cc1 [Compound 27LE, 4′-((N-(4-carboxy-3-hydroxyphenyl)-2-(N,4-dimethylphenylsulfonamido)acetamido)methyl)-[1,1′-biphenyl]-4-carboxylic acid] | > 100 µM | 68 ± 32.8 µM | 52.9 ± 22.5 µM | 76.7 ± 27.1 µM |  |  | 
12 | CN(CC(=O)N(Cc1ccc(C2CCCCC2)cc1)c1ccc(C(=O)O)c(O)c1)S(=O)(=O)c1ccc([N+](=O)[O-])cc1 [Compound 45N, 4-(N-(4-cyclohexylbenzyl)-2-(N-methyl-4-nitrophenylsulfonamido)acetamido)-2-hydroxy benzoic acid] | > 100 µM | 99.3 ± 62.1 µM | 51.7 ± 14.2 µM | 96.3 ± 18.5 µM |  |  | 
13 | COC(=O)c1ccc(-c2ccc(-c3ccc(CN(C(=O)CN(C)S(=O)(=O)c4ccc(C)cc4)c4ccc(C(=O)O)c(O)c4)cc3)cc2)cc1 [Compound 27NE] | > 100 µM | > 100 µM | 96.3 ± 31.7 µM | > 100 µM |  |  | 
14 | Cc1ccc(S(=O)(=O)N(C)CC(=O)N(Cc2ccc(-c3ccc(-c4ccc(C#N)cc4)cc3)cc2)c2ccc(C(=O)O)c(O)c2)cc1 [Compound 27NG, 4-(N-((4′-cyanoterphenyl-4-yl)methyl)-2-(N,4-dimethylphenylsulfonamido)acetamido)-2-hydroxybenzoic acid] | 94.4 ± 6.8 µM | 37.4 ± 14 µM | 32.5 ± 15.5 µM | 58.4 ± 13.8 µM |  |  | 
15 | Cc1cccc(S(=O)(=O)N(C)CC(=O)N(Cc2ccc(C3CCCCC3)cc2)c2ccc(C(=O)O)c(O)c2)c1 [Compound 45A, 4-(N-(4-cyclohexylbenzyl)-2-(N,3-dimethylphenylsulfonamido)acetamido)-2-hydroxy-benzoic acid] | 90.4 ± 3.1 µM | 78.5 ± 1.8 µM | 59.6 ± 4 µM | 85.9 ± 0.4 µM |  |  | 
16 | Cc1ccc(S(=O)(=O)N(C)CC(=O)N(Cc2ccc(-c3ccc(-c4cccc(C#N)c4)cc3)cc2)c2ccc(C(=O)O)c(O)c2)cc1 [Compound 27NC] | > 100 µM | 82.8 ± 19 µM | 90.5 ± 63.2 µM | > 100 µM |  |  | 
17 | CN(CC(=O)N(Cc1ccc(C2CCCCC2)cc1)c1ccc(C(=O)O)c(O)c1)S(=O)(=O)c1ccc(Cl)cc1 [Compound 45K, 4-(2-(4-chloro-N-methylphenylsulfonamido)-(4-cyclohexylbenzyl)acetamido)-2-hydroxy-benzoic acid] | 67.5 ± 24.2 µM | 56.3 ± 9.3 µM | 29.7 ± 16.7 µM | 76.4 ± 10.8 µM |  |  | 
18 | Cc1ccc(S(=O)(=O)N(CC(=O)N(Cc2ccc(C3CCCCC3)cc2)c2ccc(C(=O)O)c(O)c2)Cc2ccc(C(F)(F)F)cc2)cc1 [XW1-059] |  |  |  |  |  | 4.6 ± 1.6 µM | 
19 | Cc1ccc(S(=O)(=O)N(C)CC(=O)N(Cc2ccc(-c3ccc(-c4ccc(C(N)=O)cc4)cc3)cc2)c2ccc(C(=O)O)c(O)c2)cc1 [Compound 27NH, 4-(N-((4″-carbamoyl-[1,1′:4′,1″-terphenyl]-4-yl)methyl)-2-(N,4-dimethylphenylsulfonamido)acetamido)-2-hydroxybenzoic acid] |  |  |  |  |  | 16.7 ± 1.7 µM | 43 ± 1.3 µM
